According to US20080194585A1, “Fungicidal Pyrazine Derivatives” (priority 2005, published 2008):
Marks after values point to notes of the source that are not given here.

Tests used:
Botrytis cinerea = assay: Test E: tomato botrytis, preventive spray on tomato seedlings
Septoria tritici = assay: Test J: wheat leaf blotch, preventive spray on wheat seedlings; type: in vivo
Source text: A dash (-) indicates no test results.

Pythium aphanidermatum = assay: Test A: bluegrass pythium blight, preventive spray on bluegrass seedlings
Phytophthora infestans = assay: whole plant or invertebrate; type: in vivo
[1] = test system: Puccinia recondita f. sp. tritici; assay: Test K: wheat leaf rust, preventive spray on wheat seedlings
Plasmopara viticola = assay: Test D: grape downy mildew, spray after inoculation of grape seedlings; type: in vivo
Source text: Upon removal, disease ratings were made. […] A dash (-) indicates no test results.

Rhizoctonia oryzae = assay: Test G: turf brown patch, preventive spray on creeping bent grass seedlings
Experimental: (the causal agent of turf brown patch) and incubated in a saturated atmosphere at 27° C. for 24 h, and then moved to a growth chamber at 27° C. for 5 days, after which disease ratings were made.

fusarium graminearium = assay: Test I: wheat head scab, preventive spray on wheat seedlings
Experimental: (the causal agent of wheat head scab) and incubated in a saturated atmosphere at 20° C. for 72 h, and then moved to a growth chamber at 22° C. for 5 days, after which disease ratings were made.

[2] = test system: Colletotrichum orbiculare; assay: Test B: cucumber Colletotrichum anthracnose, preventive spray on cucumber seedlings
Septoria nodorum = assay: Test H: wheat glum blotch, preventive spray on wheat seedlings
Experimental: (the causal agent of wheat glum blotch) and incubated in a saturated atmosphere at 20° C. for 48 h, and then moved to a growth chamber at 22° C. for 5 days, after which disease ratings were made.

[3] = test system: Erysiphe graminis f. sp. tritici; assay: Test L: wheat powdery mildew, preventive spray on wheat seedlings
[4] = 40 ppm (marked *), 100 = 100% disease control, 0 = no control

SMILES | Test E disease control rating (Botrytis cinerea; 40 ppm (*)) | Test J disease control rating (Septoria tritici; 40 ppm (*)) | Test A disease control rating (Pythium aphanidermatum; 40 ppm (*)) | Test F disease control rating (Phytophthora infestans; 40 ppm (*)) | Test K disease control rating ([1]; 40 ppm (*)) | Test D disease control rating (Plasmopara viticola; 40 ppm (*)) | Test G disease control rating (Rhizoctonia oryzae; 40 ppm (*)) | Test I disease control rating (fusarium graminearium; 40 ppm (*)) | Test B disease control rating ([2]; 40 ppm (*)) | Test H disease control rating (Septoria nodorum; 40 ppm (*)) | Test L disease control rating ([3]; 40 ppm (*)) | further results
CCn1c(-c2c(F)cccc2F)c(Cl)nc(-n2cccn2)c1=O [compound 184] | 100* % | 96* % | 0* % | 0* % | 98* % | 67* % | 88* % | 0* % | 0* % | 100* % | 98* % | –
C#CCn1c(-c2c(F)cccc2F)c(Cl)nc(-n2cccn2)c1=O [compound 186] | 99* % | 92* % | 0* % | 0* % | 100* % | 0* % | 67* % | 0* % | 16* % | 100* % | 90* % | –
O=c1c(-n2cccn2)nc(Cl)c(-c2c(F)cccc2F)n1Cc1ccco1 [compound 187] | 96* % | 77* % | 0* % | 0* % | 91* % | 0* % | 0* % | 0* % | 0* % | 0* % | 0* % | –
O=c1c(-n2cncn2)nc(Cl)c(-c2c(F)cccc2F)n1Cc1ccco1 [compound 188] | 56* % | 23* % | 0* % | 0* % | 0* % | 0* % | 0* % | 0* % | 0* % | 0* % | 0* % | –
N#Cc1nc(Cl)c(-c2c(F)cccc2F)n(Cc2ccco2)c1=O [compound 189] | 0* % | 15* % | 0* % | 0* % | 0* % | 0* % | 0* % | 0* % | 0* % | 0* % | 0* % | –
CC(C)Cn1c(-c2c(F)cccc2F)c(Cl)nc(-c2cnc3ccccn23)c1=O [compound 190] | – | – | – | – | – | – | – | – | – | – | – | Test E disease control rating (Botrytis cinerea; 200 ppm): 0%; Test J disease control rating (Septoria tritici; 200 ppm): 0%; Test A disease control rating (Pythium aphanidermatum; 200 ppm): 0%; Test F disease control rating (Phytophthora infestans; 200 ppm): 0%; Test K disease control rating ([1]; 200 ppm): 0%; Test D disease control rating (Plasmopara viticola; 200 ppm): 0%; Test G disease control rating (Rhizoctonia oryzae; 200 ppm): 0%; Test I disease control rating (fusarium graminearium; 200 ppm): 0%; Test B disease control rating ([2]; 200 ppm): 0%; Test H disease control rating (Septoria nodorum; 200 ppm): 0%; Test L disease control rating ([3]; 200 ppm): 0%
CCC(C)Cn1c(-c2c(F)cccc2F)c(Cl)nc(-n2nccn2)c1=O (stereo not shown) [compound 191] | – | – | – | – | – | – | – | – | – | – | – | Test E disease control rating (Botrytis cinerea; 200 ppm): 97%; Test J disease control rating (Septoria tritici; 200 ppm): 36%; Test A disease control rating (Pythium aphanidermatum; 200 ppm): 0%; Test F disease control rating (Phytophthora infestans; 200 ppm): 0%; Test K disease control rating ([1]; 200 ppm): 86%; Test D disease control rating (Plasmopara viticola; 200 ppm): 0%; Test G disease control rating (Rhizoctonia oryzae; 200 ppm): 0%; Test I disease control rating (fusarium graminearium; 200 ppm): 0%; Test B disease control rating ([2]; 200 ppm): 0%; Test H disease control rating (Septoria nodorum; 200 ppm): 0%; Test L disease control rating ([3]; 200 ppm): 0%
CC(C)Cn1c(-c2ccccc2Cl)c(Cl)nc(-n2cncn2)c1=O [compound 192] | 99* % | 98* % | 0* % | 0* % | 89* % | 0* % | 31* % | 0* % | 0* % | 0* % | 0* % | –
CC(C)Cn1c(-c2ccccc2Cl)c(Cl)nc(-n2cccn2)c1=O [compound 193] | 100* % | 99* % | 0* % | 0* % | 100* % | 17* % | 33* % | 0* % | 29* % | 89* % | 68* % | –
CC(C)Cn1c(-c2ccccc2Br)c(Cl)nc(-n2cncn2)c1=O [compound 194] | 95* % | 88* % | 0* % | 0* % | 92* % | 0* % | 0* % | 0* % | 0* % | 0* % | 0* % | –
CC(C)Cn1c(-c2ccccc2Br)c(Cl)nc(-n2cccn2)c1=O [compound 195] | 99* % | 100* % | 0* % | 0* % | 100* % | 0* % | 47* % | 0* % | 26* % | 87* % | 0* % | –
CCc1ccccc1-c1c(Cl)nc(-n2cncn2)c(=O)n1CC(C)C [compound 196] | 0* % | 0* % | 0* % | 0* % | 0* % | 0* % | 0* % | 44* % | 0* % | 0* % | 0* % | –
CCc1ccccc1-c1c(Cl)nc(-n2cccn2)c(=O)n1CC(C)C [compound 197] | 41* % | 23* % | 0* % | 0* % | 0* % | 0* % | 16* % | 0* % | 0* % | 0* % | 0* % | –
CC[C@H](C)Cn1c(-c2ccc(F)cc2Cl)c(Cl)nc(-n2ccc(C)n2)c1=O [compound 262] | – | – | – | – | – | – | – | – | – | – | – | Test E disease control rating (Botrytis cinerea; [4]): 100* %; Test J disease control rating (Septoria tritici; [4]): 100* %; Test A disease control rating (Pythium aphanidermatum; [4]): 0* %; Test F disease control rating (Phytophthora infestans; [4]): 39* %; Test K disease control rating [1, 4]: 100* %; Test D disease control rating (Plasmopara viticola; [4]): 17* %; Test G disease control rating (Rhizoctonia oryzae; [4]): 76* %; Test I disease control rating (fusarium graminearium; [4]): 0* %; Test B disease control rating [2, 4]: 100* %; Test H disease control rating (Septoria nodorum; [4]): 100* %; Test L disease control rating [3, 4]: 99* %
CC[C@H](C)Cn1c(-c2ccc(F)cc2Cl)c(Cl)nc(-n2cccn2)c1=O [compound 263] | – | – | – | – | – | – | – | – | – | – | – | Test E disease control rating (Botrytis cinerea; [4]): 100* %; Test J disease control rating (Septoria tritici; [4]): 100* %; Test A disease control rating (Pythium aphanidermatum; [4]): 0* %; Test F disease control rating (Phytophthora infestans; [4]): 68* %; Test K disease control rating [1, 4]: 100* %; Test D disease control rating (Plasmopara viticola; [4]): 0* %; Test G disease control rating (Rhizoctonia oryzae; [4]): 84* %; Test I disease control rating (fusarium graminearium; [4]): 0* %; Test B disease control rating [2, 4]: 100* %; Test H disease control rating (Septoria nodorum; [4]): 100* %; Test L disease control rating [3, 4]: 98* %
CC[C@H](C)Cn1c(-c2ccc(F)cc2Cl)c(Cl)nc(N2CCC=N2)c1=O [compound 264] | – | – | – | – | – | – | – | – | – | – | – | Test E disease control rating (Botrytis cinerea; [4]): 99* %; Test J disease control rating (Septoria tritici; [4]): 100* %; Test A disease control rating (Pythium aphanidermatum; [4]): 0* %; Test F disease control rating (Phytophthora infestans; [4]): 80* %; Test K disease control rating [1, 4]: 91* %; Test D disease control rating (Plasmopara viticola; [4]): 0* %; Test G disease control rating (Rhizoctonia oryzae; [4]): 0* %; Test I disease control rating (fusarium graminearium; [4]): 0* %; Test B disease control rating [2, 4]: 81* %; Test H disease control rating (Septoria nodorum; [4]): 0* %; Test L disease control rating [3, 4]: 83* %
CCCCn1c(-c2ccc(F)cc2Cl)c(Br)nc(N2CCC=N2)c1=O [compound 286] | – | – | – | – | – | – | – | – | – | – | – | Test E disease control rating (Botrytis cinerea; [4]): 97* %; Test J disease control rating (Septoria tritici; [4]): 37* %; Test A disease control rating (Pythium aphanidermatum; [4]): 0* %; Test F disease control rating (Phytophthora infestans; [4]): 41* %; Test K disease control rating [1, 4]: 0* %; Test D disease control rating (Plasmopara viticola; [4]): 0* %; Test G disease control rating (Rhizoctonia oryzae; [4]): 0* %; Test I disease control rating (fusarium graminearium; [4]): 0* %; Test B disease control rating [2, 4]: 0* %; Test H disease control rating (Septoria nodorum; [4]): 0* %; Test L disease control rating [3, 4]: 0* %
